Experimental data from patent US11072592B2, “Small molecules that enable cartilage rejuvenation” (The Regents of the University of California, priority 2015, dated 2021).
“Also recorded” adds a separate entry of the source.

Experiments:
[1] = system: adult human articular chondrocytes; test: Transwell migration assay, adult human articular chondrocytes; type: cell-based
Description: Cells were plated on Millicell 8 μm Transwell® inserts (Millipore, Billerica, Mass.) in 12-well plates (Fisher Scientific, Pittsburgh, Pa.) and stimulated with 10 μM of RCGD 423, 10 μM MYC inhibitor (10058-F4) or 10 μM STAT3 inhibitor (STATTIC) from Tocris Bioscience (Bristol, UK). Cells that migrated across the membranes were quantified by counting after 48 hours of treatment.

cartilage explants = test: Cartilage explant culture: tissue expansion, COL2 and GAG content; type: cell-based, pig; conditions: for expansion of cartilage tissue in explants: cartilage explants/plugs in culture
Source text: The same stimulatory effect was achieved after treatment of explants with CRMs identified in our small molecule screen. […] This can test if activation of p-STAT3 and c-MYC by selected small molecules CRM-398 and -423 can result in in situ expansion of articular cartilage tissue.
Mature articular cartilage is comprised of chondrocytes contained within lacunae surrounded by dense extracellular matrix. In order for a regenerative response to occur, proliferation, survival and migration must all proceed in concert. […] We designed two sets of experiments to assess the ability of RCGD 423 to operate in this capacity. First, RCGD 423 or cytokines implicated in the growth and differentiation of articular cartilage were incubated with small plugs of cartilage tissue; after 5 weeks, the amount of COL2 and glycosaminoglycans (GAGs) were determined.
Cartilage explants were washed with PBS and then directly digested or stored at […]. For digestion, explants were transferred in digestion buffer composed of 1 mg/mL proteinase K in Tris/Ethylene diamine tetra-acetic acid (EDTA) buffer (pH 7.6) containing 18.5 μg/mL iodoacetamide and 1 μg/mL pepstatin A) for 16-72 h at 56° C. After complete digestion the GAG content was spectrophotometrically determined with 1,9-dimethylmethylene blue chloride staining in the phosphate buffer with ethylene diamine tetra-acetic acid buffer (14.2 g/L Na2HPO4 and 3.72 g/L Na2EDTA, pH 6.5) using an Infinite M1000 Pro microplate reader (Tecan) at an absorbance of 520 nm with chondroitin sulfate as a standard. Amount of total DNA in explants was determined by a CyQuant DNA Kit (Molecular Probes by Life Technology) using Qubit 1.0 fluorometer (Invitrogen).
Cultured explants were first digested in testicular hyaluronidase (0.05% in 50 mM HEPES) for 2 hours at 37° C. 0.5M glacial acetic acid was added to digestion solution to maximize the collagen swelling and provide best pepsin access. Pepsin (250 μg/ml) was then used to further digest the pellets in combination with rotation and occasional gentle vortexing at 4° C. for 18-24 hours. Cold tris base and NaOH were added to the digestion solution to neutralize the acetic acid. Digestion solution was vigorously vortexed immediately, and subsequently rotated at 4° C. overnight to maximize collagen solubility. Tubes were centrifuged to separate undigested tissue and supernatant. Any undigested tissue was subjected to the digestion process again. All supernatants were combined for ELISA. Concentration of collagen II in the supernatant was measured by Type I/II Collagen Detection Kit (Chondrex, Inc, Redmond, Wash.), according to manufacturer's instruction and normalized either to DNA content or wet weight of the explants determined prior to experimentation.

pSTAT3 and MYC = test: Western blot of pSTAT3 and MYC in adult human articular chondrocytes; type: cell-based; conditions: for levels of MYC / levels of pSTAT3: adult human articular cartilage/chondrocytes, treated vs untreated, relative to histone H3
Source text: Only early passages of chondrocytes (passage 0-2) were used for experimentation to avoid de-differentiation and loss of cartilage phenotype (Wu et al., 2014). Cartilage explants were made using 1, 2 or 8 mm biopsy punch and wet weight of each explant determined prior to experimentation. For cell isolation cartilage tissue was digested as described previously (Wu et al., 2015). Postnatal paraffin embedded joint and growth plate specimens were kindly donated by Dr Marcel Karperien from the University of Twente (Netherlands) and Dr Nick Bernthal from University of California Los Angeles. All donated material was anonymous and carried no personal identifiers. Cell culture reagents were purchased from Life Technologies, Inc. (Grand Island, N.Y.). Growth factors LIF, OSM, IL-6, TNF-α, IL-1β were purchased from Life Technologies, Inc (Grand Island, N.Y.). STATTIC, 10058-F4, SCl44 hydrochloride, and CP-690550 were purchased from Sigma Aldrich (St. Louis, Mo.). RCGD 423 (N-(4-Bromophenyl)-4-phenyl-1,3-thiazol-2-amine) was synthesized and provided by MolPort (Riga, Latvia). Fetal, adult and pig chondrocytes were cultured in DMEM F12 medium containing 10% (vol/vol) fetal bovine serum and 1% Penicillin-Streptomycin (vol/vol) at 37° C. in a humidified atmosphere of 95% aid and 5% CO2. Media was replenished with DMEM F12 medium containing 1% (vol/vol) fetal bovine serum and 1% Penicillin-Streptomycin (vol/vol) once treatments were added. For 3-dimensional (3D) cell cultures adult human articular chondrocytes were incubated with or without RCGD 423 using 10% solution of Mebiol® hydrogel from Cosmo Bio (Carlsbad, Calif.) in X-vivo 15 serum free medium from Lonza (Walkersville, Md.) as described previously (Wu et al., 2014).
Treated and non-treated ells were lysed in RIPA Lysis and Extraction Buffer (Pierce, Rockford, Ill.) containing protease inhibitors (Pierce) followed by sonication with a 15-second pulse at a power output of 2 using the VirSonic 100 (SP Industries Company, Warminster, Pa.). Protein concentrations were determined by BCA protein assay (Pierce). Proteins were resolved with SDS-PAGE utilizing 4-15% Mini-PROTEAN TGX Precast Gels and transferred to Trans-Blot Turbo Transfer Packs with a 0.2-μm pore-size nitrocellulose membrane. The SDS-PAGE running buffer, 4-15% Mini-PROTEAN TGX Precast Gels, Trans-Blot Turbo Transfer Packs with a 0.2-μm pore-size nitrocellulose membrane were purchased from Biorad (Hercules, Calif.). Nitrocellulose membranes were blocked in 5% nonfat milk in 0.05% (v/v) Tween 20 (PBST) (Corning, Manassas, Va.). Membranes were then incubated with primary antibodies phospho-STAT3 (#9131), MYC (#5605), NF-κB p65 (#D14E12), pAKT (#9272) Histone 3 (#9715) from Cell Signaling, (Danvers, Mass.); MEK1/2 (ab70613) and p38 (ab795) from Abcam (Cambridge, Mass.) overnight. After washing in PBS containing 0.05% (v/v) Tween 20 (PBST), membranes were incubated with Goat anti-Rabbit IgG (H+L) Secondary Antibody (Thermo Scientific Rockford, Ill.). After washing, membranes were developed with the Clarity Western ECL Blotting Substrate (Hercules, Calif.).

[2] = 48 hours after withdrawal (data not shown)
[3] = human adult articular chondrocytes, 1 μM

Compound | migration / migratory potential [1] | COL2 (cartilage explants; after 5 weeks) | glycosaminoglycans (GAGs) (cartilage explants; after 5 weeks) | expansion of cartilage tissue in explants (cartilage explants) | specificity and selectivity of effect for p-STAT3 and c-MYC (pSTAT3 and MYC) | protein level of c-MYC after withdrawal (pSTAT3 and MYC; [2]) | protein level of p-STAT-3 after withdrawal (pSTAT3 and MYC; [2]) | levels of MYC (pSTAT3 and MYC) | levels of pSTAT3 (pSTAT3 and MYC) | levels of c-MYC (pSTAT3 and MYC; [3]) | levels of p-STAT3 (pSTAT3 and MYC; [3])
Brc1ccc(Nc2nc(-c3ccccc3)cs2)cc1 [RCGD 423, N-(4-Bromophenyl)-4-phenyl-1,3-thiazol-2-amine] | increased | increases | increases | strong expansion | highly specific and selective | decreased | decreased | robustly increased | robustly increased | elevated | elevated
LIF: interleukin 6 (IL-6)-class cytokine | increased |  |  | significant expansion; also recorded: small expansions |  |  |  | large increases; also recorded: robustly increased | large increases; also recorded: robustly increased |  | 
